Laboratory results as given in patent US20250042968A1, “EPHRIN LIGAND MIMETIC PEPTIDES FOR THE TREATMENT OF NEURODEGENERATIVE DISEASES” (University of Miami, priority 2022, published 2025).
Entries after “also recorded” stand apart in the source; their conditions may differ.

Key:
EphA2 = molecular target: T1, EphA2 (Mus musculus, UniProt Q03145); assay: Western blot of EphA2 expression in isolated mouse RGCs; format: cell-based; conditions: 1 μM, 4 days
T1 construct: endogenous in cells; host or cells: primary mouse retinal ganglion cells (p8-10 pups)
Excerpt: In order to assess the effect of xEFN peptide supplementation on Eph-receptor modulation, various in vitro assays were employed on isolated mouse RGCs. […] Similarly, xEFN_RBD1, and 3 inhibited the phosphorylation of Rac1 by pre-clustered ephirnA5 ligand stimulation. […] TUBB3 is a marker specific for neuronal microtubules and functions as a neuronal-specific marker.

ARHGEF15 (Ephexin-5) = assay: Western blot of ARHGEF15 in mRGCs; format: cell-based, mouse; conditions: 500 nM
Procedure: On day 4, cells were treated with pre-clustered recombinant mouse EfnA5-His ligand [(+) Control, using anti-His_Tag antibody for 30 minutes] for 2 hours. Cells were then lysed in RIPA buffer containing protease and phosphatase inhibitor cocktails and maintained on ice. Protein was quantified using a BCA assay, and 10 μg of total protein was run on a TGX stain-free Any kD gel (BioRad) and transferred using the trans-blot turbo system (BioRad). Following transfer and blocking in 5% nonfat milk for 1 h, blots were probed with antibodies against RhoA, phosphorylated Rac1, ARHGEF15, Ephexin-1, or beta-actin as an endogenous loading control overnight at 4° C. Blots were then washed 3×5 min in PBS-T and incubated in the appropriate HRP-conjugated secondary antibody for 2 h at room temperature. Blots were imaged using chemiluminescent ECL substrate (Pierce) on a BioRad ChemiDoc MP imaging system and software.

T1 sequence (Q03145 26-977): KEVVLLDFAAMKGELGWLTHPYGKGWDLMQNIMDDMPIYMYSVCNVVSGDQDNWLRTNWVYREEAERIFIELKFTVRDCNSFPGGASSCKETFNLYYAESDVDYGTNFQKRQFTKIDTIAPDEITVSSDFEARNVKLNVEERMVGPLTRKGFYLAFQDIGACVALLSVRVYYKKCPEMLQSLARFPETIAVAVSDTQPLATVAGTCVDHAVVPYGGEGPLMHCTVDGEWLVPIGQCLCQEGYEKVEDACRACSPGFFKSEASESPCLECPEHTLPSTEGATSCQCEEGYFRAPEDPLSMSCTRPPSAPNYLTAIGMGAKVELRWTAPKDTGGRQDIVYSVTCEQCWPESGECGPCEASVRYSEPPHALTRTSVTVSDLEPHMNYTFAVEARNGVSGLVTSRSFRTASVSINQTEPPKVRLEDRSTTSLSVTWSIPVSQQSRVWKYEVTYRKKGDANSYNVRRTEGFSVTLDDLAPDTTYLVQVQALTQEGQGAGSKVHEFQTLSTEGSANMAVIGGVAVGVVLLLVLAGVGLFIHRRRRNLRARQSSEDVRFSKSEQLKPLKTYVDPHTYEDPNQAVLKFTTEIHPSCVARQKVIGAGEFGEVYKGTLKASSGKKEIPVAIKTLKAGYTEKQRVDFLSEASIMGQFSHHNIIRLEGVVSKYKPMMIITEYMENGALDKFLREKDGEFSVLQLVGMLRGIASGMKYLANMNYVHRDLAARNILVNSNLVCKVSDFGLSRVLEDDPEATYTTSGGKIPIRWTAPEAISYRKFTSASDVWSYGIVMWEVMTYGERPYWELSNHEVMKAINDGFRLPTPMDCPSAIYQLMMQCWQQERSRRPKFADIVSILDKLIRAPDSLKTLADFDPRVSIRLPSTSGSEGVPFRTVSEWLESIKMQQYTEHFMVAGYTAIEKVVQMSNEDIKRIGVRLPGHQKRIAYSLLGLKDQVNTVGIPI

FTIKFQEFSPNLWGL [xEFN_RBD3]
expression of EphA2 (western blot) (EphA2): reduced expression; also recorded: effectively decreased expression | ARHGEF15 (Ephexin-5) level (ARHGEF15 (Ephexin-5)): decrease
